GI50 and TGI data for twelve compounds are collected here from PubChem BioAssay (NCI).

“And” between values parts separate entries of the source, which are not always exact repeats. Equal values may be shown once.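 How tested: cells in 96-well plates exposed to compound for 48 hours at five concentrations. The concentration for 50% growth inhibition is given as GI50. TGI: total growth inhibition.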

Holding throughout (assay): growth of human tumour cells (NCI), 48 h
For assay [1], the system named is HOP-62 NSCLC.
Assay [2] relates to NCI/ADR-RES ovarian.
Assay [3] relates to BT-549 breast.
Assay [4] has as its system HT29 colon.
Assay [5] has as its system SR leukemia.
Assay [6] relates to M14 melanoma.
For assay [7], the system named is MDA-MB-231 breast.
Assay [8] relates to SK-MEL-28 melanoma.
For assay [9], the system named is UACC-257 melanoma.
The subject of assay [10] is SNB-75 CNS.

As to `NCCCNc1nc2ccc(Cl)cc2c2c(=O)c3cc(F)ccc3sc12`, the GI50 in assay [1] is 6.47 µM; in [2] it was 2.23 µM; in [3], 14.3 µM; in assay [4], 2.12 µM; in assay [5], 2.1 µM; in assay [6] it was 3.6 µM. In addition, the GI50 was 1.78 µM in [7], 10.1 µM in assay [8], 15.7 µM in assay [9] and 4.15 µM in assay [10]. The TGI in assay [1] was 28.5 µM; in assay [2], 5.62 µM; in [3], 29.6 µM; in assay [4], 4.94 µM; in [5], 5.37 µM; in assay [6], 14.2 µM. The TGI in assay [7] turned out to be 4.09 µM; in [8], 24.2 µM; in assay [9], 35.3 µM; in [10], 19.1 µM.
Regarding `Oc1ccc(Cc2ccc(O)c(C3CC(c4ccc(Cl)cc4)=NN3)c2)cc1C1CC(c2ccc(Cl)cc2)=NN1` (centres undefined), the GI50 in assay [1] is 3.81 µM; in assay [2], 2.54 µM; in assay [3] it was 4.19 µM; in [4], 6.41 µM; in assay [5], 2.77 µM; in assay [6], 3.93 µM. For the same compound, the GI50 in assay [7] is 2.49 µM; in [8] it was 5.74 µM; in assay [9] it was 3.1 µM; in [10], 3.7 µM. Besides, the TGI was over 45.2 µM in assay [1]; over 34.5 µM in assay [2]; 23.3 µM in [3]; over 44.6 µM in [4]; over 100 µM in [5]; over 39.3 µM in assay [6]. Further, the TGI in assay [7] was 8.94 µM; in assay [8], over 49.9 µM; in assay [9], 19.2 µM; in assay [10], over 82.3 µM.
As to `COc1ccc(C2CC(c3ccc4ccccc4c3)=NN2c2nc(O)c(C3=c4cc(OC)ccc4=NC3=O)s2)cc1` (centres undefined), the GI50 in [1] was 0.0633 µM; in [2], 1.89 µM; in assay [3], 0.978 µM; in [4], 0.0458 µM; in [5] it was 0.0531 µM; in assay [6], 0.072 µM. Besides, the GI50 in assay [7] was 0.0408 µM; in assay [8] it was 0.0932 µM; in assay [9], 0.718 µM; in assay [10] it was 0.0779 µM. Besides, the TGI is 0.158 µM in assay [1]; over 100 µM in assay [2]; 17.5 µM in assay [3]; over 100 µM in [4]; 2.92 µM in assay [5]; 0.726 µM in [6]. For the same compound, the TGI in assay [7] stood at 0.201 µM; in assay [8], 0.334 µM; in assay [9] it was 6.14 µM; in assay [10] it was 0.445 µM.
Turning to `CCOc1cc(/C=C/C(=O)C(C(=O)/C=C/c2ccc(OC(=O)CNc3nnc(C)s3)c(OCC)c2)C(=O)CNc2nnc(C)s2)ccc1OC(=O)CNc1nnc(C)s1`, the GI50 was 3.52 µM in assay [1]; 3.51 µM in assay [2]; 1.98 µM in [3]; 0.515 µM in assay [4]; 0.236 µM in assay [5]; 2.4 µM in assay [6]. Further, the GI50 is 1.99 µM in assay [7], 1.45 µM in [8], 2.81 µM in assay [9] and 2.93 µM in assay [10]. The TGI in assay [1] is 11.8 µM; in assay [2], over 71.2 µM; in [3], 5.33 µM; in assay [4], 1.85 µM; in [5], 1.45 µM; in assay [6], 10 µM. The TGI in [7] was determined as 6.15 µM; in [8] it was 2.92 µM; in assay [9], 9.54 µM; in assay [10], 9.77 µM.
With `Cn1c(=O)c2[nH]c(CCCc3ccc([N+](=O)[O-])cc3)nc2n(C)c1=O`, the TGI in assay [1], in assay [2], in assay [3], in assay [4], in [5] and in assay [6] was over 100 µM in each case. The TGI in assay [7], in assay [8], in assay [9] and in [10] was over 100 µM in each case.
Consider `CCOC(=O)Nc1ccc2c(c1)N(C(=O)CCN(CC)CC)c1ccccc1S2`, for which the GI50 was 44.2 µM in assay [1]; 29.6 µM in assay [4]; 60.3 µM in assay [8]; 12.4 µM in assay [9]; 11.7 µM in assay [10]. Also, the TGI in [1] is 134 µM; in assay [2], 86.8 µM; in [3], 97.2 µM; in assay [4] it was 33.9 µM and 96.4 µM; in assay [5], 43.4 µM; in assay [6] it was 48.6 µM. Besides, the TGI in [7] was 95.1 µM; in [8], 57.1 µM and 126 µM; in assay [9], 32.3 µM and 35.4 µM; in [10], 39.2 µM and 62.7 µM.
With `O=C(NS(=O)(=O)c1ccc(NC[C@H]2COCCO2)c([N+](=O)[O-])c1)c1ccc(N2CCN(CC3=C(c4ccc(Cl)cc4)CC4(CCC4)CC3)CC2)cc1Oc1cnc2[nH]ccc2c1`, the GI50 in assay [1] was 1.79 µM; in [2], 4.88 µM; in assay [3], 2.42 µM; in [4] it was 2.58 µM; in assay [5], 1.82 µM; in [6], 2.11 µM. In addition, the GI50 was 1.62 µM in assay [7], 1.58 µM in [8], 2.07 µM in assay [9] and 1.76 µM in [10]. The TGI in assay [1] is 3.71 µM; in [2] it was 24.9 µM; in assay [3], 5.39 µM; in assay [4], 8.14 µM; in assay [5], 5.31 µM; in [6], 4.99 µM. The TGI in assay [7] was found to be 3.21 µM; in [8], 3.39 µM; in assay [9] it was 4.57 µM; in assay [10] it was 6.31 µM.
Regarding `O=C(Cc1ccc(Nc2ccnc(C(F)(F)F)c2)cc1)N/N=C/c1ccccc1O`, the GI50 in assay [1] is 3.08 µM; in [2] it was 2.83 µM; in [3], 2.43 µM; in assay [4] it was 6.53 µM; in assay [5] it was 0.352 µM; in assay [6] it was 1.82 µM. Further, the GI50 in [7] is 2.55 µM; in assay [8], 3.89 µM; in [9] it was 3.18 µM; in [10] it was 4.81 µM. Moreover, the TGI in assay [1] was over 48.6 µM; in assay [2] it was 33 µM; in assay [3], over 39.2 µM; in assay [4], 56 µM; in assay [5], 4.61 µM; in [6], 19.5 µM. Besides, the TGI was over 74.9 µM in assay [7], 61.4 µM in assay [8], over 28.7 µM in assay [9] and 79.3 µM in assay [10].
Regarding `CCN1C(=O)N(CC)C2C1NC(=S)N2/N=C/C=C/c1ccccc1OC` (centres undefined), the GI50 in [1] is 0.0463 µM; in assay [2] it was 0.0311 µM; in assay [3] it was 0.0258 µM; in [4] it was 0.0361 µM; in assay [5] it was 0.0387 µM; in [6] it was under 0.0184 µM. Moreover, the GI50 in [7] was 0.0413 µM; in assay [8], 16.1 µM; in [9], over 100 µM; in assay [10], 0.0389 µM. For the same compound, the TGI in [1] is over 100 µM; in assay [2] it was over 100 µM; in assay [3], 38.2 µM; in assay [4] it was over 100 µM; in [5], over 100 µM; in [6] it was over 100 µM. Also, the TGI in assay [8], in [9] and in assay [10] was over 100 µM each time.
Turning to `CCN(CC)CC(O)COc1c(Br)c(Br)c(Br)c2c1OC(C)(C)C2` (centres undefined), the GI50 in [1] is 4.03 µM; in assay [2], 7.69 µM; in assay [3] it was 4.5 µM; in assay [4], 1.82 µM; in [5], 1.75 µM; in [6], 2.01 µM. For the same compound, the GI50 in assay [7] was 2.44 µM; in assay [8], 1.62 µM; in assay [9], 2.67 µM; in assay [10], 5.31 µM. Besides, the TGI was determined as 19.7 µM in assay [1]; 25.5 µM in [2]; 17.6 µM in [3]; 3.91 µM in assay [4]; 3.81 µM in assay [5]; 4.12 µM in [6]. The TGI was found to be 6.08 µM in assay [7], 3.24 µM in assay [8], 4.87 µM in assay [9] and 19.4 µM in assay [10].
For the compound `FC(F)(F)c1cc(-c2ncn(/C=C\c3nnco3)n2)cc(C(F)(F)F)c1`, the GI50 is 0.282 µM in [1]; 0.304 µM in [2]; 0.0719 µM in assay [3]; 0.12 µM in [4]; 0.0246 µM in assay [5]; 0.372 µM in assay [6]. The GI50 in [7] is 0.132 µM; in assay [8], 0.125 µM; in assay [9], 0.0673 µM; in assay [10] it was 0.106 µM. The TGI was 28.3 µM in assay [1]; over 63.5 µM in assay [2]; 2.44 µM in assay [3]; 48.2 µM in assay [4]; 12.6 µM in assay [5]; over 34.6 µM in assay [6]. In addition, the TGI is over 73.9 µM in [7], 49.3 µM in assay [8], over 66.4 µM in assay [9] and 3.65 µM in assay [10].
On to `O=c1[nH]c2ccccc2n2cc3ccccc3c12`, for which the GI50 in assay [1] is 4.42 µM; in assay [2] it was 6.45 µM; in assay [3], 18.9 µM; in assay [4], 4.37 µM; in assay [5], 2.87 µM; in [6] it was 6.39 µM. The GI50 in assay [7] is 0.948 µM; in [8] it was 22.6 µM; in assay [9], 15.3 µM; in [10], 13.4 µM. Moreover, the TGI in [1] is 17.9 µM; in [2], 32.1 µM; in assay [3], 64.3 µM; in [4] it was over 100 µM; in assay [5], 7.7 µM; in assay [6] it was 22.9 µM. Further, the TGI was 10.2 µM in assay [7], over 100 µM in assay [8], 33.1 µM in [9] and 74.4 µM in [10].
